Where “and” joins values, the source holds several entries; their conditions need not be identical. Equal entries are not always repeated. Where two headings read alike, the source gives them in different places.
How the values were obtained:
human hepatocytes = assay: Primary hepatocyte toxicity (AK release, ATP, 48 hr); assay type: cell-based; details: 48 hr
Procedure: Plated human hepatocytes were obtained from CellzDirect and processed according to manufacturer's instructions.
(§1) After 48 hr, supernatant AK levels were determined using Toxilight, and cellular ATP levels were determined using CellTiterGlo. Full kill values were determined using 15 μM VRX-14686.

A375 cells = assay: Anchorage-independent growth inhibition (MTS, 7 days); assay type: cell-based, human; details: Homo sapiens, A-375, 168 h, A375 Melanoma, BRAF V600E, 0.15% agarose, read-out: Anchorage-Independent GI50 (nM ± sd)
[1] = system: Colo205 colon cancer cells; assay: Anchorage-dependent growth inhibition (CellTiterGlo/ATP, 48 hr); details: Homo sapiens, COLO 205, 48 h, read-out: Anchorage-Dependent GI50 (nM ± sd)
Procedure: (§2) Cells were maintained at 37° C., 5% CO2, and 100% humidity. Colo205 cells were maintained in RPMI supplemented with 10% fetal bovine serum, glutamine (2 mM), penicillin (100 U/ml), and streptomycin (100 μg/ml). For growth inhibition experiments, cells were plated in white 384-well microplates at 1000 cells/20 dwell. After 24 hr, 5 μl of a 5× drug stock solution was added. All drugs were initially prepared as 200× stocks in DMSO, such that final DMSO concentration was 0.5%. Cells were incubated for 48 hr at 37° C. and ATP levels were determined using CellTiterGlo (Promega, Madison, Wis.). […] Non-linear curve-fitting was performed using GraphPad Prism 4 (GraphPad Software, San Diego, Calif.).

rat hepatocytes = assay: Primary hepatocyte toxicity (AK release, ATP, 48 hr); assay type: cell-based; details: 48 hr
Procedure: Cryopreserved rat hepatocytes were obtained from CellzDirect (Austin, Tex.) and plated on collagen coated 96-well plates according to manufacturer's instructions. Drug was added 4 hr after plating (final DMSO concentration 0.5%).
as §1

[2] = system: orthotopic HT-29 human colorectal adenocarcinoma; assay: Growth response of orthotopic HT-29 colon tumors in nude mice; assay type: in vivo, BALB/c nu/nu mice; details: for Caecum Weight / Tumour Weight: individual animals; for Average Caecum Weight / Average Tumour Weight: mice surviving to final day
Procedure: Female BALB/c nu/nu mice (University of Adelaide, Waite Campus, SA, Australia), aged 7-12 weeks, with a body weight range: of 16.58-25.39 g (mean 21.52 g) were used for the study. The mice were divided into 6 Study groups (4 treatment groups and 2 control groups) as follows: • Number of Mice per Group: 10 in Groups 1 to 5 inclusive • 9 in ‘Take-Rate’ Control Group (Group 6)
HT-29 human colorectal adenocarcinoma cells (Passage 4 from working stock VP-Stock 325) were cultured in RPMI1640 cell culture medium, which was supplemented with 10% FBS and penicillin-streptomycin (501 U/mL final concentration). The cells were harvested by trypsinisation, washed twice in HBSS and counted. The cells were then resuspended in HESS and adjusted to a final volume containing 2×10^8 cells/mL. Prior to inoculation, the incision site was liberally swabbed with alcohol and an incision made through the abdominal wall to expose the caecum wall. The needle was introduced through the surface of the caecum wall where 5 μL of cells (1×10^6 cells) were discharged.
A stock solution was prepared weekly and stored at 4° C. Dosing solutions were prepared on each day of administration.
Caecum and tumor wet weight were measured when each were excised post-mortem on the termination day of the study. At the termination of the study, the caecum was excised from all mice in each study group and weighed with the tumors intact. The tumors were then excised from the caecum and weighed.
A two-sample t-test was used to determine the significance in body weight change within a treatment group between Day 0 and the termination day of the study. […] In these groups, a two-sample t-test was used to determine the significance in body weight change within a treatment group between Day 0 and the final treatment day of the study, and between the last treatment day and the termination day of the study.
A One-Way Analysis of Variance (ANOVA) (All Pairwise Multiple Comparison Procedure and Multiple Comparison versus Control Group) was performed on the caecum weight and tumor weight data at the end of the study.

HT29 colon cells = assay: Anchorage-dependent growth inhibition (CellTiterGlo/ATP, 48 hr); details: Homo sapiens, HT-29, 48 h, read-out: Anchorage-Dependent GI50 (nM ± sd)
Procedure: as §2

[3] = system: human A375 melanoma xenografts
A375 melanoma cells = assay: Anchorage-dependent growth inhibition (CellTiterGlo/ATP, 48 hr); assay type: cell-based, human; details: Homo sapiens, A-375; A375 Melanoma, BRAF V600E; 48 hr, CellTiterGlo; read-out: Anchorage-Dependent GI50 (nM ± sd)
A431 epidermoid cells = assay: as above; details: Homo sapiens, A-431, 48 h, read-out: Anchorage-Dependent GI50 (nM ± sd)
Procedure: as §2

Colo205 cells = assay: Anchorage-independent growth inhibition (MTS, 7 days); assay type: cell-based, human; details: Homo sapiens, COLO 205, 168 h, Colo205 Colon, BRAF V600E, 0.15% agarose, read-out: Anchorage-Independent GI50 (nM ± sd)
Procedure: Wells of an “ultra low binding” plate (Corning, Acton Mass.) were filled with 60 μl of a 0.15% agarose solution in complete RPMI. Then, 60 μl complete RPMI containing 9000 Colo205 cells in 0.15% agarose was added per well. After 24 hr, 60 μl of a 3× drug solution in agarose free complete RPMI was added. After 7 days, 36 μl 6×MTS reagent (CellTiter 96 Aqueous, Promega, Madison, Wis.) was added per well. After 2 hr at 37° C., absorbance at 490 nm was determined on the M5 plate reader (Molecular Devices, Sunnyvale, Calif.).
Viability was determined by MTS assay.

[4] = system: human renal proximal tubule epithelial cells (RPTEC); assay: Renal cell toxicity (AK release, ATP, 48 hr); assay type: cell-based; details: 48 hr
Procedure: Cryopreserved human renal proximal tubule epithelial cells (RPTEC) were obtained from Cambrex and were processed according to manufacturer's instructions. Cells were expanded for 4 days and then plated in 96-well plates at 50,000 cells/well for drug exposure.
as §1

[5] = Group 3: Compound A 50 mg/kg po qd × 14
[6] = Group 3: Compound A 50 mg/kg po qd × 14, n=9
[7] = Group 4: Compound A 25 mg/kg po bid × 14
[8] = Group 4: Compound A 25 mg/kg po bid × 14, n=9
[9] = Group 5: Compound A 25 mg/kg po qd × 14
[10] = Group 5: Compound A 25 mg/kg po qd × 14, n=9
[11] = Group 6: Compound A 12.5 mg/kg po bid × 14
[12] = Group 6: Compound A 12.5 mg/kg po bid × 14, n=9

`COc1cc(F)c(F)c(Nc2ccc(I)cc2F)c1NS(=O)(=O)C1(C[C@H](O)CO)CC1` [Compound A] was tested, and the “AK release (% Cell Survival) Hepatocytes Human” value (human hepatocytes; Compound A 1.1 (μM)) was 92%, the “ATP (% Cell Survival) Hepatocytes Human” value (human hepatocytes; Compound A 1.1 (μM)) was 108% and the “AK release (% Cell Survival) Hepatocytes Human” value (human hepatocytes; Compound A 3.3 (μM)) was 102%. The “ATP (% Cell Survival) Hepatocytes Human” value (human hepatocytes; Compound A 3.3 (μM)) was 104%, the “AK release (% Cell Survival) Hepatocytes Human” value (human hepatocytes; Compound A 10.0 (μM)) was 112% and the “ATP (% Cell Survival) Hepatocytes Human” value (human hepatocytes; Compound A 10.0 (μM)) was 107%. For the same compound, the “AK release (% Cell Survival) Hepatocytes Human” value (human hepatocytes; Compound A 30.0 (μM)) was 109%, the “ATP (% Cell Survival) Hepatocytes Human” value (human hepatocytes; Compound A 30.0 (μM)) was 81% and the GI50 (A375 cells) was 68 ± 34 nM. The GI50 [1] was 74 ± 45 nM, the “AK release (% Cell Survival) Hepatocytes Rat” value (rat hepatocytes; Compound A 1.1 (μM)) was 96% and the “ATP (% Cell Survival) Hepatocytes Rat” value (rat hepatocytes; Compound A 1.1 (μM)) was 114%. The “AK release (% Cell Survival) Hepatocytes Rat” value (rat hepatocytes; Compound A 3.3 (μM)) was 97%, the “ATP (% Cell Survival) Hepatocytes Rat” value (rat hepatocytes; Compound A 3.3 (μM)) was 87% and the “AK release (% Cell Survival) Hepatocytes Rat” value (rat hepatocytes; Compound A 10.0 (μM)) was 93%. For the same compound, the “ATP (% Cell Survival) Hepatocytes Rat” value (rat hepatocytes; Compound A 10.0 (μM)) was 72%, the “AK release (% Cell Survival) Hepatocytes Rat” value (rat hepatocytes; Compound A 30.0 (μM)) was 91% and the “ATP (% Cell Survival) Hepatocytes Rat” value (rat hepatocytes; Compound A 30.0 (μM)) was 57%. The “Survival Number (No. Alive/Total)” value ([2]; Compound A 2 mg/kg p.o. once daily Day 0 to 9) was 4/10, the “Caecum Weight” value ([2]; Compound A 2 mg/kg, 2 mg/kg) was 0.347 g and 0.170 g and 0.150 g and 0.205 g and 0.377 g and 0.233 g and 0.251 g and 0.322 g and the “Tumour Weight” value ([2]; Compound A 2 mg/kg, 2 mg/kg) was 0.001 g (3×) and 0.000 g and 0.005 g (2×) and 0.122 g and 0.003 g. For the same compound, the “Average Caecum Weight” value ([2]; Compound A 2 mg/kg) was 0.296 g, the “Average Tumour Weight” value ([2]; Compound A 2 mg/kg) was 0.033 g and the “Caecum Weight” value ([2]; Compound A 10 mg/kg, 10 mg/kg) was 0.287 g and 0.198 g and 0.258 g and 0.111 g and 0.263 g and 0.237 g and 0.234 g and 0.289 g and 0.320 g and 0.251 g. For the same compound, the “Tumour Weight” value ([2]; Compound A 10 mg/kg, 10 mg/kg) was 0.000 g (3×) and 0.257 g and 0.008 g and 0.422 g and 0.001 g and 0.014 g and 0.004 g and 0.100 g, the “Average Caecum Weight” value ([2]; Compound A 10 mg/kg) was 0.244 g and the “Average Tumour Weight” value ([2]; Compound A 10 mg/kg) was 0.078 g. For the same compound, the “Caecum Weight” value ([2]; Compound A 50 mg/kg, 50 mg/kg) was 0.230 g and 0.254 g and 0.238 g and 0.201 g and 0.337 g and 0.169 g and 0.328 g and 0.217 g and 0.312 g and 0.463 g, the “Tumour Weight” value ([2]; Compound A 50 mg/kg, 50 mg/kg) was 0.002 g (2×) and 0.000 g and 0.004 g and 0.166 g and 0.655 g and 0.001 g (3×) and 0.026 g and the “Average Caecum Weight” value ([2]; Compound A 50 mg/kg) was 0.290 g. The “Average Tumour Weight” value ([2]; Compound A 50 mg/kg) was 0.122 g, the GI50 (HT29 colon cells) was 70 ± 12 nM and the “% TGD” value [3, 5] was 21%. The “Median TTE” value [3, 5] was 27.5 days, the “T − C” value [3, 5] was 4.7 days and the “Regressions CR” value [3, 6] was 0. The “Regressions PR” value [3, 6] was 1, the “Regressions TFS” value [3, 6] was 0 and the “% TGD” value [3, 7] was 163%. The “MTV (n) Day 60” value [3, 7] was 0 (4), the “Median TTE” value [3, 7] was 59.9 days and the “T − C” value [3, 7] was 37.1 days. For the same compound, the “Regressions CR” value [3, 8] was 5, the “Regressions PR” value [3, 8] was 4 and the “Regressions TFS” value [3, 8] was 4. The “% TGD” value [3, 9] was 12%, the “Median TTE” value [3, 9] was 25.6 days and the “T − C” value [3, 9] was 2.8 days. For the same compound, the “Regressions CR” value [3, 10] was 0, the “Regressions PR” value [3, 10] was 0 and the “Regressions TFS” value [3, 10] was 0. The “% TGD” value [3, 11] was 21%, the “Median TTE” value [3, 11] was 27.5 days and the “T − C” value [3, 11] was 4.7 days. The “Regressions CR” value [3, 12] was 0, the “Regressions PR” value [3, 12] was 1 and the “Regressions TFS” value [3, 12] was 0. For the same compound, the “Mean BW Nadir” value ([3]; mouse, in vivo, po, 25 mg/kg) was −0.6% Day 15, the GI50 (A375 melanoma cells) was 67 ± 12 nM and the GI50 (A431 epidermoid cells) was greater than 10000 nM. The GI50 (Colo205 cells) was 33 ± 16 nM, the “AK release (% Cell Survival) RPTEC Human” value ([4]; Compound A 1.1 (μM)) was 96% and the “ATP (% Cell Survival) RPTEC Human” value ([4]; Compound A 1.1 (μM)) was 94%. For the same compound, the “AK release (% Cell Survival) RPTEC Human” value ([4]; Compound A 3.3 (μM)) was 95%, the “ATP (% Cell Survival) RPTEC Human” value ([4]; Compound A 3.3 (μM)) was 91% and the “AK release (% Cell Survival) RPTEC Human” value ([4]; Compound A 10.0 (μM)) was 99%. The “ATP (% Cell Survival) RPTEC Human” value ([4]; Compound A 10.0 (μM)) was 85%, the “AK release (% Cell Survival) RPTEC Human” value ([4]; Compound A 30.0 (μM)) was 41% and the “ATP (% Cell Survival) RPTEC Human” value ([4]; Compound A 30.0 (μM)) was 34%.

From patent US8648116B2, “Derivatives of N-(arylamino) sulfonamides including polymorphs as inhibitors of MEK as well as compositions, methods of use and methods for preparing the same” (Ardea Biosciences, Inc., priority 2005, dated 2014)
